Each block holds one compound with its values, some of them ahead of it.
Legend:
[1] = target: T1, soluble guanylate cyclase (sGC) (Bos taurus, UniProt P16068); assay: Activation of soluble guanylate cyclase (cGMP enzyme immunoassay); type: biochemical; details: sGC isolated from bovine lung, stimulation of basal enzyme activity vs solvent control
T1 construct: The sGC employed had been isolated from bovine lung; from tissue; host or cells: bovine lung
T1 sequence (P16068 1-619): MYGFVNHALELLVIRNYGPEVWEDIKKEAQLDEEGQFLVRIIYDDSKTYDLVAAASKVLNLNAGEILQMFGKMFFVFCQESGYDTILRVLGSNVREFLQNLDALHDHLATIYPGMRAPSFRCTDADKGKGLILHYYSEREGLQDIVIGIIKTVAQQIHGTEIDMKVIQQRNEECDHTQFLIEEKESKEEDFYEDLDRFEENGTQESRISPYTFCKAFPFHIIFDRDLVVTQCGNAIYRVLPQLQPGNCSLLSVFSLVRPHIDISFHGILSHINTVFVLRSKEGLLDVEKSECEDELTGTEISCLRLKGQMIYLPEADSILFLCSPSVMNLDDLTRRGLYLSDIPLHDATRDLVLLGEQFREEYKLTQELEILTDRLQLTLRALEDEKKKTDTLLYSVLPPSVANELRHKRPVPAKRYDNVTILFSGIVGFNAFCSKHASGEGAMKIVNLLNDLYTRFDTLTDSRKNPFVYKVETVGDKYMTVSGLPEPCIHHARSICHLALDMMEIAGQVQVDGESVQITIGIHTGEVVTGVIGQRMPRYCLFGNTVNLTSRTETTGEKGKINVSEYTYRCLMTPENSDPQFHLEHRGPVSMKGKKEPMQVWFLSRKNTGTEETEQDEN
T1 sequence (P19687 1-691 partner): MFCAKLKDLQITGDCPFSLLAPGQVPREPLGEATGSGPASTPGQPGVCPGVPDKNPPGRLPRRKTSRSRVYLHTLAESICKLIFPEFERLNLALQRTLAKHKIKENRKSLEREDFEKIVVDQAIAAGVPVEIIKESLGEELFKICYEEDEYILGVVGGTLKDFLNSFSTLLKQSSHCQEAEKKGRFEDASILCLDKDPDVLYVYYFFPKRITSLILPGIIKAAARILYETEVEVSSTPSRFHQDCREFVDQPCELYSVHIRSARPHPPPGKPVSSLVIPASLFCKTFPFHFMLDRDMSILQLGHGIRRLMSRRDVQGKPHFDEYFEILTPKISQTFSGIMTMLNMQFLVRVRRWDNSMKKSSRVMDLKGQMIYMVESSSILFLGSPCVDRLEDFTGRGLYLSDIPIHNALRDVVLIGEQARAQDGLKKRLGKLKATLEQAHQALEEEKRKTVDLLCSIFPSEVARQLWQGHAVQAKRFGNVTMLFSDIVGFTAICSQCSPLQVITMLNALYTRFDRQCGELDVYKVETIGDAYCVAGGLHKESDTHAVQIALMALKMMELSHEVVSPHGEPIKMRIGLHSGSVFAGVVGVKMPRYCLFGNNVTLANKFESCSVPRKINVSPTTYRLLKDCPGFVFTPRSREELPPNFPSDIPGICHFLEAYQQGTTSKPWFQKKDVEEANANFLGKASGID
Experimental: The activation of soluble guanylate cyclase (sGC), which catalyzes the conversion of guanosine triphosphate (GTP) to cyclic guanosine monophosphate (cGMP) and pyrophosphate, by the compounds according to the invention was quantified with the aid of an enzyme immunoassay (EIA) from Amersham. For this, the test substances were first incubated with sGC in microtiter plates and then the quantity of the resulting cGMP was determined.
The sGC employed had been isolated from bovine lung (see Methods in Enzymology, Volume 195, p. 377). The test solutions (100 μl per well) contained 50 mM triethanolamine (TEA) buffer (pH 7.5), 3 mM MgCl2, 3 mM reduced glutathione (GSH), 0.1 mM GTP, 1 mM 3-isobutyl-1-methylxanthine (IBMX), suitably diluted enzyme solution and the test substance or, in the control experiments, solvent. The test substances were dissolved in dimethyl sulfoxide (DMSO) and the solution was diluted with DMSO/water such that the final concentration c of test substance in the test batch had the value indicated below. The DMSO concentration in the test batch was 5% (v/v). The reaction was started by addition of the sGC. The reaction mix was incubated at 37° C. for 15 to 20 minutes and then stopped by ice-cooling and addition of the stop reagent (50 mM EDTA, pH 8.0). An aliquot of 50 μl was taken and employed for the determination of the cGMP content using the acetylation protocol of the Amersham cGMP EIA kit. The absorption of the samples was measured at 450 nm (reference wavelength 620 nm) in a microtiter plate reading apparatus. The cGMP concentration was determined by means of a calibration curve, which was obtained under the same experimental conditions. The activation of the sGC by a test substance is indicated as n-fold stimulation of the basal enzyme activity which was found in the control experiments (with solvent instead of test substance) (calculated according to the formula n-fold stimulation=[cGMP]test substance/[cGMP]control).

n-fold stimulation ([1]; concentration c 50 μM): 6.1 n-fold
Compound: 5-Chloro-2-(4-chlorophenylsulfonylamino)-N-(quinolinsyl)benzamide [Example 111]

melting point: 164.5 °C
Compound: COc1ccc(C(F)(F)F)cc1NC(=O)c1cc(Cl)ccc1NS(=O)(=O)c1ccc(Cl)cc1 [Example 29, 5-Chloro-2-(4-chlorophenylsulfonylamino)-N-(2-methoxy-5-trifluoromethylphenyl)benzamide]

melting point: 182 °C
Compound: O=C(Nc1ccccc1C(F)(F)F)c1cc(Cl)ccc1NS(=O)(=O)c1ccc(Cl)cc1 [Example 30, 5-Chloro-2-(4-chlorophenylsulfonylamino)-N-(2-trifluoromethylphenyl)benzamide]

melting point: 163.5 °C
Compound: COc1cccc(NC(=O)c2cc(Cl)ccc2NS(=O)(=O)c2ccc(Cl)cc2)c1 [Example 31, 5-Chloro-2-(4-chlorophenylsulfonylamino)-N-(3-methoxyphenyl)benzamide]

melting point: 74.5 °C
Compound: COc1cc(NC(=O)c2cc(Cl)ccc2NS(=O)(=O)c2ccc(Cl)cc2)cc(OC)c1 [Example 32, 5-Chloro-2-(4-chlorophenylsulfonylamino)-N-(3,5-dimethoxyphenyl)benzamide]

n-fold stimulation ([1]; concentration c 50 μM): 3.8 n-fold
Compound: O=C(Nc1ccc(C(=O)N2CCOCC2)cc1)c1cc(Cl)ccc1NS(=O)(=O)c1ccc(Cl)cc1 [Example 33, 5-Chloro-2-(4-chlorophenylsulfonylamino)-N-(4-(morpholine-4-carbonyl)phenyl)benzamide]

n-fold stimulation ([1]; concentration c 50 μM): 1.5 n-fold
Compound: CCN(CC)Cc1cc(NC(=O)c2cc(Cl)ccc2NS(=O)(=O)c2ccc(Cl)cc2)ccc1O [Example 93, 5-Chloro-2-(4-chlorophenylsulfonylamino)-N-(3-diethylaminomethyl-4-hydroxyphenyl)benzamide]

n-fold stimulation ([1]; concentration c 12.5 μM): 4.9 n-fold
Compound: N#CC(c1ccccc1)c1ccc(NC(=O)c2cc(Cl)ccc2NS(=O)(=O)c2ccc(Cl)cc2)cc1 (centres unmarked) [Example 97, 5-Chloro-2-(4-chlorophenylsulfonylamino)-N-(4-(cyanophenylmethyl)phenyl)benzamide]

n-fold stimulation ([1]; concentration c 50 μM): 1.7 n-fold
Compound: O=C(O)CNC(=O)c1ccc(NC(=O)c2cc(Cl)ccc2NS(=O)(=O)c2ccc(Cl)cc2)cc1 [Example 102, (4-(5-Chloro-2-(4-chlorophenylsulfonylamino)benzoylamino)benzoylamino)acetic acid]

n-fold stimulation ([1]; concentration c 50 μM): 2.5 n-fold
Compound: O=C(O)Cc1cccc(NC(=O)c2cc(Cl)ccc2NS(=O)(=O)c2ccc(Cl)cc2)c1 [Example 108, (3-(5-Chloro-2-(4-chlorophenylsulfonylamino)benzoylamino)phenyl)acetic acid]

More lines, now with the values behind:

Compound: O=C(Nc1cccc(C(F)(F)F)c1)c1ccccc1NS(=O)(=O)c1ccc(Cl)cc1 [Example 1, 2-(4-Chlorophenylsulfonylamino)-N-(3-trifluoromethylphenyl)benzamide]
n-fold stimulation ([1]; concentration c 100 μM): 3.6 n-fold
melting point: 169 °C

Compound: O=C(Nc1cccc(C(F)(F)F)c1)c1cc(Br)ccc1NS(=O)(=O)c1ccc(Cl)cc1 [Example 2, 5-Bromo-2-(4-chlorophenylsulfonylamino)-N-(3-trifluoromethylphenyl)benzamide]
n-fold stimulation ([1]; concentration c 100 μM): 9.2 n-fold
melting point: 220 °C

Compound: O=C(Nc1ccc2ccccc2c1)c1ccccc1NS(=O)(=O)c1ccc(Cl)cc1 [Example 3, 2-(4-Chlorophenylsulfonylamino)-N-(2-naphthyl)benzamide]
n-fold stimulation ([1]; concentration c 100 μM): 2 n-fold
melting point: 189 °C

Compound: O=C(Nc1cccc(C(F)(F)F)c1)c1cc(Cl)ccc1NS(=O)(=O)c1ccc(Cl)cc1 [Example 4, 5-Chloro-2-(4-chlorophenylsulfonylamino)-N-(3-trifluoromethylphenyl)benzamide]
n-fold stimulation ([1]; concentration c 25 μM): 5.5 n-fold
melting point: 216 °C

Compound: O=C(Nc1ccc(Oc2ccccc2)cc1)c1cc(Cl)ccc1NS(=O)(=O)c1ccc(Cl)cc1 [Example 5, 5-Chloro-2-(4-chlorophenylsulfonylamino)-N-(4-phenoxyphenyl)benzamide]
n-fold stimulation ([1]; concentration c 10 μM): 9.3 n-fold
melting point: 205 °C

Compound: O=C(Nc1ccc(Oc2ccc(Cl)cc2)cc1)c1cc(Cl)ccc1NS(=O)(=O)c1ccc(Cl)cc1 [Example 6, 5-Chloro-2-(4-chlorophenylsulfonylamino)-N-(4-(4-chlorophenoxy)phenyl)benzamide]
n-fold stimulation ([1]; concentration c 100 μM): 4.2 n-fold
melting point: 207 °C

Compound: O=C(Nc1ccc(Oc2ccccc2)cc1)c1ccccc1NS(=O)(=O)c1ccc(Cl)cc1 [Example 7, 2-(4-Chlorophenylsulfonylamino)-N-(4-phenoxyphenyl)benzamide]
n-fold stimulation ([1]; concentration c 100 μM): 2.8 n-fold
melting point: 143 °C

Compound: O=C(Nc1ccc(Cl)c(Cl)c1)c1cc(Cl)ccc1NS(=O)(=O)c1ccc(Cl)cc1 [Example 8, 5-Chloro-2-(4-chlorophenylsulfonylamino)-N-(3,4-dichlorophenyl)benzamide]
n-fold stimulation ([1]; concentration c 10 μM): 5.3 n-fold

Compound: COc1ccc(S(=O)(=O)Nc2ccc(Cl)cc2C(=O)Nc2ccc(F)cc2)cc1Cl [Example 17]
n-fold stimulation ([1]; concentration c 100 μM): 2 n-fold

Compound: O=C(Nc1ccc(Oc2ccc(Cl)c3ccccc23)c(Cl)c1)c1cc(Cl)ccc1NS(=O)(=O)c1ccc(Cl)cc1 [Example 19, 5-Chloro-2-(4-chlorophenylsulfonylamino)-N-(3-chloro-4-(4-chloronaphthalene-1-yloxy)phenyl)benzamide]
n-fold stimulation ([1]; concentration c 100 μM): 26.3 n-fold

Compound: O=C(Nc1ccc(Nc2ccccc2)cc1)c1cc(Cl)ccc1NS(=O)(=O)c1ccc(Cl)cc1 [Example 22, 5-Chloro-2-(4-chlorophenylsulfonylamino)-N-(4-(phenylamino)phenyl)benzamide]
melting point: 192.5 °C

Compound: O=C(Nc1ccc(N2CCCC2=O)cc1)c1cc(Cl)ccc1NS(=O)(=O)c1ccccc1 [Example 25]
n-fold stimulation ([1]; concentration c 50 μM): 2.4 n-fold

Compound: Cc1cncc(NC(=O)c2cc(Cl)ccc2NS(=O)(=O)c2ccc(Cl)cc2)n1 [Example 26, 5-Chloro-2-(4-chlorophenylsulfonylamino)-N-(5-methylpyrazin-3-yl)benzamide]
melting point: 248 °C

Compound: O=C(Nc1cc(-c2cccs2)n[nH]1)c1cc(Cl)ccc1NS(=O)(=O)c1ccc(Cl)cc1 [Example 27, 5-Chloro-2-(4-chlorophenylsulfonylamino)-N-(3-(2-thienyl)pyrazol-5-yl)benzamide]
melting point: 117 °C

Compound: O=C(Nc1cc(C(F)(F)F)cc(C(F)(F)F)c1)c1cc(Cl)ccc1NS(=O)(=O)c1ccc(Cl)cc1 [Example 28, 5-Chloro-2-(4-chlorophenylsulfonylamino)-N-(3,5-bis-trifluoromethylphenyl)benzamide]
melting point: 182.5 °C

Source: patent publication US7351703B2, “Sulfonylamino carboxylic acid N-arylamides as guanylate cyclase activators” (Sanofi-Aventis Deutschland GmbH, priority 1999, dated 2008)
